Reference: PubChem BioAssay AID1117328 (Cheminformatics & Chemogenomics Research Group (CCRG), …, 2015)
Activity calls are given as the source filed them. No rule for the calls is given here.

These compounds were tested against Ribosomal protein S6 kinase beta-1 (Homo sapiens) (UniProt P23443) (assay: p70S6K1 kinase inhibitors, biochemical, LANCE Ultra TR-FRET (AID 1117328)). Conditions: LANCE Ultra TR-FRET kinase assay, at 20 µM (top of the series).
Ribosomal protein S6 kinase beta-1 (Homo sapiens), sequence (P23443 whole entry, looked up): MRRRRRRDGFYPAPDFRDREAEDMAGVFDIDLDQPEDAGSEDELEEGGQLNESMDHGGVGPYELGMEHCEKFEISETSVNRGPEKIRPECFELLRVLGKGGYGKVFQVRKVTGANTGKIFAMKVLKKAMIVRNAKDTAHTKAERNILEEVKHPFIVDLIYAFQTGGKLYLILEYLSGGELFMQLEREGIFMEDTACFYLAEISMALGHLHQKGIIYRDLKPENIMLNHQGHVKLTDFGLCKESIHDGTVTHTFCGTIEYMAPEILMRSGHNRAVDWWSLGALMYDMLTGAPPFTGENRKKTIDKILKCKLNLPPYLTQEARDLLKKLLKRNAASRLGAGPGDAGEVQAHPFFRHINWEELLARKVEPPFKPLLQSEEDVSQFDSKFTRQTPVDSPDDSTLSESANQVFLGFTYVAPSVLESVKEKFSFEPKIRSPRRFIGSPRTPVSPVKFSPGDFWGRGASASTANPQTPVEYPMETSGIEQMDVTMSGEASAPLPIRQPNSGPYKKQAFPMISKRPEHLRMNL

Compound	inhibition
Cc1ccccc1C(=O)Nc1ccc(C(=O)N2CCCC(N(C)C)c3ccccc32)cc1 (stereo not drawn)	-7.07% (inactive)
COc1c(C)c2c(c(O)c1C/C=C(\C)CCC(=O)OCCN1CCOCC1)C(=O)OC2	1.51% (inactive)
COC(=O)Nc1nc2ccc(S(=O)c3ccccc3)cc2[nH]1 (stereo not drawn)	-8.8% (inactive)
COc1cc2c(c(OC)c1OC)-c1ccc(OC)c(=O)cc1[C@@H](NC(C)=O)CC2	-2.55% (inactive)
COc1cc([C@@H]2c3cc4c(cc3[C@H](O)[C@H]3COC(=O)[C@H]23)OCO4)cc(OC)c1OC	3.8% (inactive)
CCCSc1ccc2nc(NC(=O)OC)[nH]c2c1	-2.9% (inactive)
O=C(Nc1ccc([N+](=O)[O-])cc1Cl)c1cc(Cl)ccc1O	49.9% (inactive)
CSc1ccc2c(c1)C(N1CCN(C)CC1)Cc1ccccc1S2 (stereo not drawn)	6.51% (inactive)
CC(C)(C)C1CCC(CC2=C(O)c3ccccc3C(=O)C2=O)CC1 (stereo not drawn)	-2.09% (inactive)
CC(C)(C)C(=O)OCOP(=O)(COCCn1cnc2c(N)ncnc21)OCOC(=O)C(C)(C)C	-0.94% (inactive)
Oc1c(Cl)cc(Cl)cc1Sc1cc(Cl)cc(Cl)c1O	40.3% (inactive)
O=C(O)c1ccc(-n2nc(-c3ccccc3O)nc2-c2ccccc2O)cc1	0.21% (inactive)
Cc1ccc([N+](=O)[O-])[c]2c1[O][Hg]2	33.5% (inactive)
CN(C)c1ccc2nc3ccc(=[N+](C)C)cc-3sc2c1	-350% (inactive)
Cc1cc(C2CCCCC2)n(O)c(=O)c1	-2.62% (inactive)
Cc1nc(Nc2ncc(C(=O)Nc3c(C)cccc3Cl)s2)cc(N2CCN(CCO)CC2)n1	5.32% (inactive)
CCC(C)n1ncn(-c2ccc(N3CCN(c4ccc(OC[C@H]5CO[C@](Cn6cncn6)(c6ccc(Cl)cc6Cl)O5)cc4)CC3)cc2)c1=O (stereo partly drawn)	-9.45% (inactive)
COc1cccc2c1C(=O)c1c(O)c3c(c(O)c1C2=O)C[C@@](O)(C(C)=O)C[C@@H]3O[C@H]1C[C@H](N)[C@H](O)[C@H](C)O1	-19.5% (inactive)
CCCCC1C(=O)N(c2ccccc2)N(c2ccc(O)cc2)C1=O (stereo not drawn)	0.82% (inactive)
CCCCc1oc2ccccc2c1C(=O)c1cc(I)c(OCCN(CC)CC)c(I)c1	-4.08% (inactive)
CCCCCCNC(=O)n1cc(F)c(=O)[nH]c1=O	-0.86% (inactive)

Compound	inhibition
O=C(CCCCCCC(=O)Nc1ccccc1)NO	4.26% (inactive)
Cc1nc2ccc(CN(C)c3ccc(C(=O)N[C@@H](CCC(=O)O)C(=O)O)s3)cc2c(=O)[nH]1	26.6% (inactive)
COC(=O)Nc1nc2ccc(Sc3ccccc3)cc2[nH]1	-5.93% (inactive)
CCC1=C[C@@H]2CN(C1)Cc1c([nH]c3ccccc13)[C@@](C(=O)OC)(c1cc3c(cc1OC)N(C)[C@H]1[C@@](O)(C(=O)OC)[C@H](OC(C)=O)[C@]4(CC)C=CCN5CC[C@]31[C@@H]54)C2	-0.16% (inactive)
COC(=O)Nc1nc2ccc(C(=O)C3CC3)cc2[nH]1	12.7% (inactive)
CCc1nc(N)nc(N)c1-c1ccc(Cl)cc1	11.7% (inactive)
CCCOc1ccc2nc(NC(=O)OC)[nH]c2c1	-4.03% (inactive)
COc1ccc2cc1Oc1ccc(cc1)C[C@H]1c3c(cc4c(c3Oc3cc5c(cc3OC)CCN(C)[C@@H]5C2)OCO4)CCN1C	-3.96% (inactive)
CNC(=O)c1cc(Oc2ccc(NC(=O)Nc3ccc(Cl)c(C(F)(F)F)c3)cc2)ccn1	64.8%
O=C(NOCC1CC1)c1ccc(F)c(F)c1Nc1ccc(I)cc1Cl	-1.64% (inactive)
COc1ccc(-c2ccc3cc(C(=O)O)ccc3c2)cc1C12CC3CC(CC(C3)C1)C2	29% (inactive)
CNC(=O)c1ccccc1Sc1ccc2c(/C=C/c3ccccn3)n[nH]c2c1	-17.9% (inactive)
CC(C)C[C@H](NC(=O)[C@H](Cc1ccccc1)NC(=O)c1cnccn1)B(O)O	6.59% (inactive)
CC[C@@H]([C@H](C)O)n1ncn(-c2ccc(N3CCN(c4ccc(OC[C@@H]5CO[C@@](Cn6cncn6)(c6ccc(F)cc6F)C5)cc4)CC3)cc2)c1=O	-23% (inactive)
O=c1[nH]c(=O)n([C@H]2C[C@H](O)[C@@H](CO)O2)cc1F	-6.04% (inactive)
COc1cc2nc(N3CCN(C(=O)c4ccco4)CC3)nc(N)c2cc1OC	28.5% (inactive)
COc1cc(-c2ccc(=O)[nH]n2)ccc1OC(F)F	3.71% (inactive)
O=[N+]([O-])c1ccc(O)c2ncccc12	37.6% (inactive)
Nc1nc(=S)c2[nH]cnc2[nH]1	3.34% (inactive)
O=c1c(-c2ccccc2)c1-c1ccccc1	5.11% (inactive)
C=C(C)[C@H]1Cc2c(ccc3c2O[C@@H]2COc4cc(OC)c(OC)cc4[C@@H]2C3=O)O1	-6.37% (inactive)

Compound	inhibition
Cc1cc(=O)c2c(O)c3c(O)cc(=O)c4c3c3c(cc(O)c1c23)C(C)(C)C=4O	12.5% (inactive)
O=c1[nH]c(=O)n([C@H]2C[C@H](O)[C@@H](CO)O2)cc1C(F)(F)F	5.58% (inactive)
NC(=NCCCCCCN=C(N)/N=C(\N)Nc1ccc(Cl)cc1)/N=C(\N)Nc1ccc(Cl)cc1	29.9% (inactive)
Cc1ccc(Nc2nccc(N(C)c3ccc4c(C)n(C)nc4c3)n2)cc1S(N)(=O)=O	5.82% (inactive)
Nc1ccc2cc3ccc(N)cc3nc2c1	-285% (inactive)
COCc1c(C(C)C)nc(C(C)C)c(/C=C/[C@@H](O)C[C@@H](O)CC(=O)O)c1-c1ccc(F)cc1	1.86% (inactive)
CCCN(CCC)C(=O)C(CCC(=O)OCCCN1CCN(CCOC(=O)Cc2c(C)n(C(=O)c3ccc(Cl)cc3)c3ccc(OC)cc23)CC1)NC(=O)c1ccccc1 (stereo not drawn)	-0.47% (inactive)
CCCCCCCCCCCCCCCC[n+]1ccccc1	-110% (inactive)
COC(=O)[C@H]1[C@H]2C[C@@H]3c4[nH]c5cc(OC)ccc5c4CCN3C[C@H]2C[C@@H](OC(=O)/C=C/c2ccc(O)c(OC)c2)[C@@H]1OC	7.92% (inactive)
Oc1c(Cl)cc(Cl)c2cccnc12	8.07% (inactive)
COC(=O)c1nc(Cl)c(Cl)nc1N	1.07% (inactive)
CC(=O)[C@]1(O)Cc2c(O)c3c(c(O)c2[C@@H](O[C@H]2C[C@H](N)[C@H](O)[C@H](C)O2)C1)C(=O)c1ccccc1C3=O	-128% (inactive)
S=c1nc[nH]c2nc[nH]c12	22.2% (inactive)
CC[C@@]1(O)C(=O)OCc2c1cc1n(c2=O)Cc2c-1nc1ccccc1c2/C=N/OC(C)(C)C	-2.02% (inactive)
Cc1nc(N)nc(N)c1-c1ccc(Cl)c(Cl)c1	5.16% (inactive)
CCN(CC)CCNc1ccc(CO)c2sc3ccccc3c(=O)c12	37.2%
COC(=O)Nc1nc2ccc(C(=O)c3ccccc3)cc2[nH]1	-18.7% (inactive)
CC[C@]1(O)C[C@H]2CN(CCc3c([nH]c4ccccc34)[C@@](C(=O)OC)(c3cc4c(cc3OC)N(C=O)[C@H]3[C@@](O)(C(=O)OC)[C@H](OC(C)=O)[C@]5(CC)C=CCN6CC[C@]43[C@@H]65)C2)C1	5.42% (inactive)
CCN(CC)CCOc1ccc(/C(=C(\Cl)c2ccccc2)c2ccccc2)cc1	7.41% (inactive)
Cc1ccc2nc(N)[nH]c(=O)c2c1Sc1ccncc1	50.1%
COc1cc(NCc2ccc3nc(N)nc(N)c3c2C)cc(OC)c1OC	38% (inactive)

Compound	inhibition
CCCCCCCCCCCCCCCCCCNC(=O)OC1CCN(C(=O)OC[C@H](COC(=O)N(Cc2cccc[n+]2CC)C(=O)c2ccccc2OC)OC)CC1	-363% (inactive)
[O-][n+]1ccccc1SSc1cccc[n+]1[O-]	-10.6% (inactive)
Cn1cnc([N+](=O)[O-])c1Sc1ncnc2nc[nH]c12	-0.72% (inactive)
CN1CC[C@H](c2c(O)cc(O)c3c(=O)cc(-c4ccccc4Cl)oc23)[C@H](O)C1	48.6% (inactive)
C[C@@]12C(=O)OC(=O)[C@]1(C)C1CCC2O1	6.38% (inactive)
COc1ccc(-c2nc3ccc(C4=NNC(=O)CC4C)cc3[nH]2)cc1 (stereo not drawn)	-32.5% (inactive)
Cc1cc(C)c(/C=C2\C(=O)Nc3ccccc32)[nH]1	45.3% (inactive)
Oc1c(I)cc(I)c2cccnc12	1.27% (inactive)
CCCCCCCCCCCCCC[N+](C)(C)C	3.96% (inactive)
O=C(CCl)c1ccc(Cl)cc1Cl	-8.03% (inactive)
CC[C@]1(O)C[C@@H]2CN(CCc3c([nH]c4ccccc34)[C@@](C(=O)OC)(c3cc4c(cc3OC)N(C)[C@H]3[C@@](O)(C(=O)OC)[C@H](OC(C)=O)[C@]5(CC)C=CCN6CC[C@]43[C@@H]65)C2)C1	-1.14% (inactive)
O=C1c2c(O)ccc(O)c2C(=O)c2c(NCCNCCO)ccc(NCCNCCO)c21	21.1%
CCN(CC)CCNC(=O)c1c(C)[nH]c(/C=C2\C(=O)Nc3ccc(F)cc32)c1C	91.7%
C[n+]1c2cc(N)ccc2cc2ccc(N)cc21 (tested in a mixture with another compound)	65.3%
C=CC(=O)Nc1cc2c(Nc3ccc(F)c(Cl)c3)ncnc2cc1OCCCN1CCOCC1	10.8% (inactive)
COC(=O)Nc1nc2ccc(C(=O)c3cccs3)cc2[nH]1	-23.9% (inactive)
Cc1cc(O)c2ccccc2c1O	39.1% (inactive)
CC(C)C[C@H](NC(=O)[C@H](CCc1ccccc1)NC(=O)CN1CCOCC1)C(=O)N[C@@H](Cc1ccccc1)C(=O)N[C@@H](CC(C)C)C(=O)[C@@]1(C)CO1	-1.98% (inactive)
CC(=O)Oc1ccc(C2(c3ccc(OC(C)=O)cc3)Oc3ccccc3NC2=O)cc1	-1.96% (inactive)
Cc1cc2c(C(C)C)c(O)c(O)c(C=O)c2c(O)c1-c1c(C)cc2c(C(C)C)c(O)c(O)c(C=O)c2c1O	-7.01% (inactive)
